Reference: paper PMC10342533, “Novel Tetrazole Derivatives Targeting Tubulin Endowed with Antiproliferative Activity against Glioblastoma Cells” (International Journal of Molecular Sciences, 2023)

How the values were obtained:
HeLa cells [1] = assay: Cell cycle analysis by flow cytometry (PI), HeLa; format: cell-based, human; conditions: 100 nM
Procedure: (§1) To assess how tubulin polymerization inhibition and the effects on the microtubule network affect the cell cycle, flow cytometry experiments were performed on HeLa, MCF7, and U87 MG cells 24, 48, and 72 h after treatments with compounds 10, 12, and 14 at 100 nM using propidium iodide (PI) for DNA staining and untreated cells as the negative control.
(§2) HeLa, MCF7, or U87 MG cells were seeded in 6-well plates (8·10^4 cells/mL, 2 mL/well) and incubated in complete DMEM Medium (see above) at 37 °C and 5% CO2 atmosphere for 24 h. Then, the cells were treated with selected compounds (10, 12, or 14) at 100 nM, and untreated cells were used as negative controls. Cells were collected 24, 48, or 72 h following treatment and fixed overnight in ethanol/PBS (7:3) at 4 °C. After two washes with PBS, cells were suspended in PBS and incubated in darkness overnight with 0.2 mg/mL RNase A (Sigma-Aldrich, St. Louis, MO, USA), 50 µg/mL propidium iodide (Sigma-Aldrich, St. Louis, MO, USA), and Triton 10x at room temperature. A BD Accuri™ C6 Plus Flow Cytometer (BD Biosciences, Franklin Lakes, NJ, USA) cytometer was used to analyze the samples, and BD Accuri™ C6 Software (version 1.0.264.21) was used for data analysis.

MCF7 cells = assay: Apoptotic cell death quantification, Annexin V-FITC/PI, MCF7; format: cell-based, human; conditions: MCF7, 72 h, 100 nM; for Necrotic cells: PI+ AnV−
Procedure: (§3) To characterize the cell death mechanism induced by the representative compounds 10, 12, or 14 at 100 nM on HeLa, MCF7, and U87 MG cells, dual-channel flow cytometry studies were carried out for cells in the absence (negative control) or presence of compounds 72 h after treatment. Fluorescein isothiocyanate-labeled Annexin V (FITC-AnV) and propidium iodide (PI) were used for double staining. Regarding their response to AnV and PI, cells can be identified as viable (PI−, AnV−), early apoptotic (PI−, AnV+), late apoptotic or secondary necrotic (PI+, AnV+), or necrotic (PI+, AnV−). The translocation of the phosphatidylserine from the inner to the outer cell membrane causes the response of apoptotic cells to AnV, whereas only cells suffering some kind of membrane disintegration (late apoptotic or necrotic cells) allow PI permeation.
(§4) Following the manufacturer’s guidelines, an Annexin V-FITC/PI apoptosis detection kit (Immunostep, Salamanca, Spain) was used to quantify HeLa, MCF7, or U87 MG cells. Cells were seeded in 12-well plates (5·10^4 cells/mL, 1 mL/well) and incubated in complete DMEM medium (see above) at 37 °C and 5% CO2 atmosphere for 24 h. Then, the cells were treated with selected compounds (10, 12, or 14) at 100 nM, and untreated cells were used as negative controls. Then, 72 h after incubation, the cells were harvested, centrifugated, resuspended in the Annexin V binding buffer, and incubated in darkness with Annexin V-FITC/PI for 15 min at room temperature. The samples were analyzed by using a BD Accuri™ C6 Plus Flow Cytometer (BD Biosciences), and acquired data were analyzed via BD Accuri™ C6 Software (version 1.0.264.21).

U87 MG cells = assay: Cell cycle analysis by flow cytometry (PI), U87 MG; format: cell-based, human; conditions: 100 nM
Procedure: as §1, §2

HeLa cells [2] = assay: Apoptotic cell death quantification, Annexin V-FITC/PI, HeLa; format: cell-based, human; conditions: 72 h, 100 nM
Procedure: as §3, §4

[3] = tested on: HeLa (cervix epithelioid carcinoma); assay: Cell growth inhibition, MTT assay, HeLa; format: cell-based; conditions: Homo sapiens
[4] = tested on: HEK-293 (embryonic kidney); assay: Cell growth inhibition, MTT assay, non-tumor HEK-293; format: cell-based; conditions: Homo sapiens, HEK293, 72 h, non-tumorigenic cell line
Method in brief: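 Viability of non-tumor HEK-293 cells determined by MTT 72 h after compound exposure at concentrations from 10^-10 to 10^-2 M; untreated cells served as negative controls. Triplicate measurements, three independent experiments; IC50 values derived from the concentration-response data.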

Row | Structure (SMILES) | G0/G1 population (HeLa cells [1]; 24 h) [% Cells] | G2/M population (HeLa cells [1]; 24 h) [% Cells] | S population (HeLa cells [1]; 24 h) [% Cells] | SubG0/G1 population (HeLa cells [1]; 24 h) [% Cells] | G0/G1 population (HeLa cells [1]; 48 h) [% Cells] | G2/M population (HeLa cells [1]; 48 h) [% Cells] | S population (HeLa cells [1]; 48 h) [% Cells] | SubG0/G1 population (HeLa cells [1]; 48 h) [% Cells] | G0/G1 population (HeLa cells [1]; 72 h) [% Cells] | G2/M population (HeLa cells [1]; 72 h) [% Cells] | S population (HeLa cells [1]; 72 h) [% Cells] | SubG0/G1 population (HeLa cells [1]; 72 h) [% Cells] | early and late apoptotic populations (MCF7 cells) [%] | Necrotic cells (MCF7 cells) [%] | G0/G1 population (U87 MG cells; 24 h) [% Cells] | G2/M population (U87 MG cells; 24 h) [% Cells] | S population (U87 MG cells; 24 h) [% Cells] | SubG0/G1 population (U87 MG cells; 24 h) [% Cells] | G0/G1 population (U87 MG cells; 48 h) [% Cells] | G2/M population (U87 MG cells; 48 h) [% Cells] | further results
1 | CSc1cc(-c2nnnn2-c2ccc3c(ccn3C)c2)cc(Cl)n1 [Compound 10, 5-(5-(2-chloro-6-(methylsulfanyl)pyridin-4-yl)-1H-tetrazol-1-yl)-1-methyl-1H-indole] | 18.1 | 59.5 | 3.9 | 18.6 | 16.7 | 45.9 | 7.6 | 29.1 | 14.4 | 35.2 | 4.9 | 45.6 | 22 | 2.3 | 21.1 | 47.8 | 8.3 | 23.5 | 11.0 | 31.6 | S population (U87 MG cells; 48 h): 9.0 % Cells; SubG0/G1 population (U87 MG cells; 48 h): 49.2 % Cells; G0/G1 population (U87 MG cells; 72 h): 10.5 % Cells; G2/M population (U87 MG cells; 72 h): 17.0 % Cells; S population (U87 MG cells; 72 h): 2.9 % Cells; apoptosis (early and late apoptotic death) (HeLa cells [2]): ~73%; IC50 ([3]; 72 h after drug exposure): 39 nM; IC50 ([3]; mean ± SD, Table S1): 39.3 ± 0.2 nM; IC50 [4]: 4390 nM
2 | Cn1cc(C=O)c2cc(-n3nnnc3-c3cc(Cl)nc(Cl)c3)ccc21 [Compound 12, 5-(5-(2,6-dichloropyridin-4-yl)-1H-tetrazol-1-yl)-1-methyl-1H-indole-3-carbaldehyde] | 20.0 | 57.8 | 4.6 | 17.8 | 18.2 | 40.8 | 7.8 | 32.5 | 15.3 | 34.0 | 5.6 | 45.4 | 8 | 7 | 27.3 | 37.8 | 9.6 | 26.1 | 11.9 | 27.4 | S population (U87 MG cells; 48 h): 10.3 % Cells; SubG0/G1 population (U87 MG cells; 48 h): 51.1 % Cells; G0/G1 population (U87 MG cells; 72 h): 12.2 % Cells; G2/M population (U87 MG cells; 72 h): 10.0 % Cells; S population (U87 MG cells; 72 h): 7.8 % Cells; apoptosis (early and late apoptotic death) (HeLa cells [2]): ~73%; IC50 ([3]; 72 h after drug exposure): 36 nM; IC50 ([3]; mean ± SD, Table S1): 36.4 ± 0.4 nM; IC50 [4]: 3080 nM
3 | CSc1cc(-c2nnnn2-c2ccc3c(c2)c(C=O)cn3C)cc(Cl)n1 [Compound 14, 5-(5-(2-chloro-6-(methylsulfanyl)pyridin-4-yl)-1H-tetrazol-1-yl)-1-methyl-1H-indole-3-carbaldehyde] | 16.6 | 47.0 | 3.7 | 32.7 | 17.1 | 34.1 | 7.0 | 41.3 | 9.6 | 25.4 | 8.1 | 57.4 | 29 | 2.6 | 23.7 | 41.3 | 8.5 | 27.2 | 12.5 | 32.1 | S population (U87 MG cells; 48 h): 10.6 % Cells; SubG0/G1 population (U87 MG cells; 48 h): 45.4 % Cells; G0/G1 population (U87 MG cells; 72 h): 11.1 % Cells; G2/M population (U87 MG cells; 72 h): 9.6 % Cells; S population (U87 MG cells; 72 h): 6.9 % Cells; apoptosis (early and late apoptotic death) (HeLa cells [2]): 80%; IC50 ([3]; 72 h after drug exposure): 24 nM; IC50 ([3]; mean ± SD, Table S1): 24.2 ± 0.1 nM; IC50 [4]: 2270 nM
